Laboratory results from patent US5348975A, “7-chromanyl esters of phenols and benzoic acids having retinoid-like activity” (Allergan, Inc., priority 1993, dated 1994).

What was measured:
[1] = tested on: ornithine decarboxylase (ODC); conditions: literature background, cited from earlier work
[2] = tested on: ornithine decarboxylase (ODC); assay: inhibition of TPA-induced ornithine decarboxylase (ODC) activity (retinoic acid-like activity; essentially method of Verma & Boutwell); assay type: in vivo
Source text: The retionic acid like activity of these compounds was confirmed through the classic measure of retionic acid activity involving the effects of retionic acid on ornithine decarboxylase. The original work on the correlation between retinoic acid and decrease in cell proliferation was done by Verma & Boutwell, Cancer Research, 1977, 37, 2196-2201. That reference discloses that ornithine decarboxylase (ODC) activity increased precedent to polyamine biosynthesis. It has been established elsewhere that increases in polyamine synthesis can be correlated or associated with cellular proliferation. Thus, if ODC activity could be inhibited, cell hyperproliferation could be modulated.
By way of example of retinoic acid-like activity it is noted that in the assay conducted essentially in accordance with the method of Verma & Boutwell, ibid, the following examples of the preferred compounds of the present invention (Compounds 1, 2 and 3) elicited the following percent inhibition of TPA-induced ODC activity at the given calculations: […]

For CCCCCCCCCCCCCC(=O)O[C@@H]1[C@@H](C)[C@@]2(O)[C@@H](C=C(CO)C[C@]3(O)C(=O)C(C)=C[C@@H]23)[C@@H]2C(C)(C)[C@]12OC(C)=O [TPA, 12-0-tetradecanoyl-phorbol-13-acetate], the “induction of ODC activity (in words)” value ([1]; TPA) is listed as “induces ODC activity”.
In the case of CC1=C(/C=C/C(C)=C/C=C/C(C)=C/C(=O)O)C(C)(C)CCC1 [Retinoic acid], the “inhibition of TPA induction of ODC activity (in words)” value ([1]; retinoic acid) is listed as “inhibits this induction of ODC activity by TPA”.
For CC1(C)CC(C)(C)c2ccc(C(=O)Oc3ccc(C(=O)O)cc3)cc2O1 [Compound 3, 4-(2,2,4,4-tetramethyl-7-chromanoyloxy) benzoic acid], the “% inhibition of TPA-induced ODC activity” value ([2]; Dose 30 nmol) was 86%.
With CC1(C)CC(C)(C)c2ccc(C(=O)Oc3ccc(C(=O)OCc4ccccc4)cc3)cc2O1 [Compound 2, Benzyl 4-(2,2,4,4,tetramethyl-7-chromanoyloxy)benzoate] the “% inhibition of TPA-induced ODC activity” value ([2]; Dose 300 nmol) was 84%.
With CCOC(=O)c1ccc(OC(=O)c2ccc3c(c2)OC(C)(C)CC3(C)C)cc1 [Compound 1, Ethyl 4-(2,2,4,4-tetramethyl-7-chromanoyloxy) benzoate] the “% inhibition of TPA-induced ODC activity” value ([2]; Dose 30 nmol) was 100%.
